PubChem BioAssay AID330 (DTP/NCI, 2004)
Several values for one entry are separate records, joined by “and”; a condition that tells them apart may be missing. Identical values can stand only once. Toxic doses and inconclusive results are not listed.

Tested on: P388 leukemia ip, CD2F1 mice, survival T/C
Assay: NCI In Vivo Anticancer Drug Screen. Data for tumor model P388 Leukemia (intraperitoneal) in CD2F1 (CDF1) mice
Settings: endpoint: median survival time, higher = longer survival
Method in brief: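 Mice carrying the transplanted tumor received test compound or vehicle. Survival was recorded in each group, and the value is the treated-group measurement divided by that of the vehicle-treated control group.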

[1] = dose: 12.5 mg/kg/injection, schedule: Q01DX009 (ip), vehicle: saline with Tween-80
[2] = dose: 25.0 mg/kg/injection, schedule: Q01DX009 (ip), vehicle: saline with Tween-80
[3] = dose: 50.0 mg/kg/injection, schedule: Q01DX009 (ip), vehicle: saline with Tween-80
[4] = dose: 100.0 mg/kg/injection, schedule: Q01DX009 (ip), vehicle: saline with Tween-80
[5] = dose: 200.0 mg/kg/injection, schedule: Q01DX009 (ip), vehicle: saline with Tween-80
[6] = dose: 60.0 mg/kg/injection, schedule: Q01DX005 (ip), vehicle: saline with Tween-80
[7] = dose: 120.0 mg/kg/injection, schedule: Q01DX005 (ip), vehicle: saline with Tween-80
[8] = dose: 240.0 mg/kg/injection, schedule: Q01DX005 (ip), vehicle: saline with Tween-80
[9] = dose: 200.0 mg/kg/injection, schedule: Q01DX001 (ip), vehicle: saline with Tween-80
[10] = dose: 400.0 mg/kg/injection, schedule: Q01DX001 (ip), vehicle: saline with Tween-80
[11] = dose: 100.0 mg/kg/injection, schedule: Q01DX001 (ip), vehicle: saline with Tween-80
[12] = dose: 12.5 mg/kg/injection, schedule: Q01DX009 (ip), vehicle: other

CC(=NC1CCCCC1)Nc1ccc(NC(=O)c2ccc(C(=O)Nc3ccc(NC(C)=NC4CCCCC4)cc3)cc2)cc1
T/C (dose: 25.0 mg/kg/injection, schedule: Q01DX005 (ip), vehicle: Klucel (hydroxypropylcellulose) (HPC)): 98 % of control
T/C (dose: 50.0 mg/kg/injection, schedule: Q01DX005 (ip), vehicle: Klucel (hydroxypropylcellulose) (HPC)): 104 % of control
T/C (dose: 100.0 mg/kg/injection, schedule: Q01DX005 (ip), vehicle: Klucel (hydroxypropylcellulose) (HPC)): 98 % of control
T/C (dose: 200.0 mg/kg/injection, schedule: Q01DX005 (ip), vehicle: Klucel (hydroxypropylcellulose) (HPC)): 102 % of control

O=C(CC(=O)C(F)(F)F)c1csc2ccccc12
T/C [1]: 95 % of control
T/C (dose: 12.5 mg/kg/injection, schedule: Q04DX003 (ip), vehicle: saline with Tween-80): 100 % of control
T/C [2]: 100 % of control
T/C (dose: 25.0 mg/kg/injection, schedule: Q04DX003 (ip), vehicle: saline with Tween-80): 100 % of control
T/C [3]: 109 % of control
T/C (dose: 50.0 mg/kg/injection, schedule: Q04DX003 (ip), vehicle: saline with Tween-80): 109 % of control

CCCSCCCCSCCC
T/C [4]: 100 % of control
T/C [5]: 108 % of control

C[C@H](CS)C(=O)N1c2ccccc2C[C@H]1C(=O)O
T/C [6]: 101 % of control
T/C [7]: 104 % of control
T/C [8]: 113 % of control

c1ccc(C23CC4CCCCC4CC2O3)cc1 (configuration not stated)
T/C (dose: 100.0 mg/kg/injection, schedule: Q04DX002 (ip), vehicle: Klucel (hydroxypropylcellulose) (HPC)): 98 % of control
T/C (dose: 200.0 mg/kg/injection, schedule: Q04DX002 (ip), vehicle: Klucel (hydroxypropylcellulose) (HPC)): 111 % of control
T/C (dose: 400.0 mg/kg/injection, schedule: Q04DX002 (ip), vehicle: Klucel (hydroxypropylcellulose) (HPC)): 104 % of control

CC(C)(C)OC(=O)NC(COCc1ccccc1)C(=O)ON1C(=O)CCC1=O (configuration not stated)
T/C (dose: 50.0 mg/kg/injection, schedule: Q01DX005 (ip), vehicle: saline with Tween-80): 114 % of control
T/C (dose: 100.0 mg/kg/injection, schedule: Q01DX005 (ip), vehicle: saline with Tween-80): 103 % of control

Cn1cnc2c1c(=O)n(C(C(N)=O)C(N)=O)c(=O)n2C
T/C [9]: 104 % of control
T/C [10]: 101 % of control

c1cc(Cc2ccsc2)cs1
T/C [6]: 104 % of control
T/C [7]: 104 % of control
T/C [8]: 106 % of control

c1ncn(Sn2cncn2)n1
T/C (dose: 8.75 mg/kg/injection, schedule: Q01DX005 (ip), vehicle: Klucel (hydroxypropylcellulose) (HPC)): 100 % of control
T/C (dose: 17.5 mg/kg/injection, schedule: Q01DX005 (ip), vehicle: Klucel (hydroxypropylcellulose) (HPC)): 101 % of control
T/C (dose: 35.0 mg/kg/injection, schedule: Q01DX005 (ip), vehicle: Klucel (hydroxypropylcellulose) (HPC)): 104 % of control

CCCCCCCCCOCC(O)CCl (configuration not stated)
T/C (dose: 50.0 mg/kg/injection, schedule: Q01DX009 (ip), vehicle: Klucel (hydroxypropylcellulose) (HPC)): 97 % of control
T/C (dose: 100.0 mg/kg/injection, schedule: Q01DX009 (ip), vehicle: Klucel (hydroxypropylcellulose) (HPC)): 98 % of control
T/C (dose: 200.0 mg/kg/injection, schedule: Q01DX009 (ip), vehicle: Klucel (hydroxypropylcellulose) (HPC)): 93 % of control

CCCCCc1cc(O)c2c(c1)OC(C)(C)[C@@H]1CCC(C)=C[C@@H]21
T/C (dose: 1.0 mg/kg/injection, schedule: Q01DX005 (iv), vehicle: other): 100 % of control
T/C (dose: 1.5 mg/kg/injection, schedule: Q02HX016 (oral), vehicle: olive oil, sesame oil, peanut oil): 92 % of control
T/C (dose: 2.0 mg/kg/injection, schedule: Q01DX005 (iv), vehicle: other): 100 % of control
T/C (dose: 3.0 mg/kg/injection, schedule: Q02HX016 (oral), vehicle: olive oil, sesame oil, peanut oil): 92 % of control
T/C (dose: 4.0 mg/kg/injection, schedule: Q01DX005 (iv), vehicle: other): 100 % of control
T/C (dose: 8.0 mg/kg/injection, schedule: Q01DX005 (iv), vehicle: other): 92 % of control
T/C (dose: 16.0 mg/kg/injection, schedule: Q01DX005 (iv), vehicle: other): 100 % of control
T/C (dose: 32.0 mg/kg/injection, schedule: Q01DX005 (iv), vehicle: other): 109 % of control and 96 % of control
T/C (dose: 64.0 mg/kg/injection, schedule: Q01DX005 (iv), vehicle: other): 99 % of control and 100 % of control
T/C (dose: 128.0 mg/kg/injection, schedule: Q01DX005 (iv), vehicle: other): 99 % of control
T/C (dose: 256.0 mg/kg/injection, schedule: Q01DX005 (iv), vehicle: other): 99 % of control

CCOc1c2c(nn(C)c1=O)Oc1ccccc1N2CCCN1CCOCC1
T/C (dose: 15.0 mg/kg/injection, schedule: Q01DX005 (ip), vehicle: saline with Tween-80): 96 % of control
T/C (dose: 30.0 mg/kg/injection, schedule: Q01DX005 (ip), vehicle: saline with Tween-80): 90 % of control
T/C [6]: 104 % of control and 91 % of control

C[CH2][Sn]([CH2]C)([CH2]C)[O]C(=O)CO
T/C (dose: 1.56 mg/kg/injection, schedule: Q01DX009 (ip), vehicle: saline with Tween-80): 115 % of control
T/C (dose: 3.12 mg/kg/injection, schedule: Q01DX009 (ip), vehicle: saline with Tween-80): 122 % of control

Cc1ccc(C(C)(N=[N+]=[N-])c2ccccc2)cc1C (configuration not stated)
T/C [2]: 91 % of control
T/C [3]: 108 % of control
T/C [4]: 109 % of control

O=C(O)CC(NC(=O)CCl)c1cccs1 (configuration not stated)
T/C (dose: 50.0 mg/kg/injection, schedule: Q01DX009 (ip), vehicle: saline): 97 % of control
T/C (dose: 100.0 mg/kg/injection, schedule: Q01DX009 (ip), vehicle: saline): 94 % of control
T/C (dose: 200.0 mg/kg/injection, schedule: Q01DX009 (ip), vehicle: saline): 98 % of control

CC1(C)C=C2OC(=O)CCC2(C)CC1 (configuration not stated)
T/C (dose: 50.0 mg/kg/injection, schedule: Q01DX001 (ip), vehicle: saline with Tween-80): 95 % of control
T/C [11]: 118 % of control
T/C [9]: 90 % of control

CN1C(c2ccccc2)CC(=O)C(N)C1c1ccccc1 (configuration not stated)
T/C (dose: 50.0 mg/kg/injection, schedule: Q01DX005 (ip), vehicle: distilled water + Tween-80): 92 % of control
T/C (dose: 100.0 mg/kg/injection, schedule: Q01DX005 (ip), vehicle: distilled water + Tween-80): 90 % of control
T/C (dose: 200.0 mg/kg/injection, schedule: Q01DX005 (ip), vehicle: distilled water + Tween-80): 92 % of control

COc1ccc(C(OCC2CC3CCC2C3)OCC2CC3CCC2C3)cc1 (configuration not stated)
T/C [12]: 114 % of control
T/C (dose: 25.0 mg/kg/injection, schedule: Q01DX009 (ip), vehicle: other): 111 % of control
T/C (dose: 50.0 mg/kg/injection, schedule: Q01DX009 (ip), vehicle: other): 110 % of control
T/C (dose: 100.0 mg/kg/injection, schedule: Q01DX009 (ip), vehicle: other): 111 % of control
T/C (dose: 200.0 mg/kg/injection, schedule: Q01DX009 (ip), vehicle: other): 111 % of control

c1ccc2c(c1)nnn1c3cnccc3nc21
T/C [1]: 111 % of control

COC(=O)/C=C1\C(=O)OCC1(C)C
T/C (dose: 100.0 mg/kg/injection, schedule: Q04DX003 (ip), vehicle: saline): 100 % of control
T/C (dose: 200.0 mg/kg/injection, schedule: Q04DX003 (ip), vehicle: saline): 104 % of control
T/C (dose: 400.0 mg/kg/injection, schedule: Q04DX003 (ip), vehicle: saline): 103 % of control

C/C(=N\Nc1ccc([N+](=O)[O-])cc1[N+](=O)[O-])C1CC1
T/C [2]: 117 % of control
T/C [3]: 106 % of control
T/C [4]: 108 % of control
T/C [5]: 109 % of control

Cc1cc(NCCCCNCCCNc2cc(C)nc3cc([N+](=O)[O-])ccc23)c2ccc([N+](=O)[O-])cc2n1
T/C [12]: 150 % of control

COC(=O)C1=COC(OC2OC(CO)C(O)C(O)C2O)C2C(C)C(O)C(OC(=O)/C=C/c3ccc(OC)cc3)C12 (configuration not stated)
T/C (dose: 9.38 mg/kg/injection, schedule: Q01DX005 (ip), vehicle: Klucel (hydroxypropylcellulose) (HPC)): 96 % of control
T/C (dose: 37.5 mg/kg/injection, schedule: Q01DX005 (ip), vehicle: Klucel (hydroxypropylcellulose) (HPC)): 88 % of control
T/C (dose: 60.0 mg/kg/injection, schedule: Q01DX005 (ip), vehicle: Klucel (hydroxypropylcellulose) (HPC)): 93 % of control
T/C (dose: 75.0 mg/kg/injection, schedule: Q01DX005 (ip), vehicle: Klucel (hydroxypropylcellulose) (HPC)): 88 % of control
T/C (dose: 120.0 mg/kg/injection, schedule: Q01DX005 (ip), vehicle: Klucel (hydroxypropylcellulose) (HPC)): 93 % of control
T/C (dose: 240.0 mg/kg/injection, schedule: Q01DX005 (ip), vehicle: Klucel (hydroxypropylcellulose) (HPC)): 86 % of control

O=C(O)CSCc1nc2ccccc2[nH]1
T/C [11]: 95 % of control
T/C [9]: 90 % of control
T/C [10]: 100 % of control
